What follows are molecules tested against T1, DRP1 (Homo sapiens, UniProt O00429) (assay: AlphaLISA assay (His-DRP1 / MiD49-GST interaction)). Details: His-DRP1 200 nM, MiD49-GST 20 nM, GMP-PNP 100 uM.
T1 construct: Human DRIP1 (UniProtID: O00429.4, residues 1-699); made in house; host or cells: Escherichia coli BL21 CodonPlus DE3
Type: binding
Experimental: Human DRIP1 (UniProtID: O00429.4, residues 1-699), and human MiD49 (UnitProtIS: Q96C03.1, residues 126-454) was cloned into a pET15b vector as an N-terminal His-tag Fusion. All constructs were transformed in Escherichia coli host strain BL21 CodonPlus DE3. Bacteria was grown in LB media with 100 μg/ml ampicillin and 34 μg/ml chloramphenicol in an orbital shaker at 37° C. until OD600 reached 0.4, at which temperature was reduced to 16° C. Recombinant protein expression was expressed for 18 hr by the addition of IPTG at OD600 of about 0.8. All cultures were spun down and bacterial pellets were used for protein purification.
For His-DRP1, the pellets were resuspended in DRP-buffer A (20 mM Tris, 500 KCl, 1.89 β-ME, pH 8.0) and protease inhibitor cocktail (Roche), followed by cell disruption by sonication (400 W, pulse 3 sec on, 3 sec off, total 20 min). The lysate was centrifuged at 20,000 g and then supernatant applied to a preequilibrated Ni-NTA column with DRP-buffer A. The column was extensively washed with buffer A containing 50 mM imidazole. Purified His-DRP1 was eluted with DRP-buffer A containing 250 mM imidazole and dialyzed overnight at 4° C. (18 kDa cutoff) against DRP-buffer A to remove imidazole. For AlphaLISA, the His tag was retained on DRP1 full-length.
For MiD49-GST, the bacterial pellets were resuspended and sonicated in MID lysis buffer (25 mM Tris-HCl, pH 7.5, 500 mM NaCl, 5% glycerol, 1 mM TCEP, and 0.5% CHAPS). The lysate was pre-cleared at 20,300 g before applying to a glutathione column. Unbound proteins were washed using MID-buffer A (25 mM Tris-HCl, pH 7.5, 300 mM NaCl, 5% glycerol, 1 mM TCEP) and MID-buffer B (25 mM Tris-HCl, pH 7.5, 300 mM NaCl, 5% glycerol, 1 mM TCEP, 1 mM GSH). The protein was eluted with MID-buffer C (25 mM Tris-HCl, pH 7.5, 300 mM NaCl, 5% glycerol, 1 mM TCEP, 10 mM GSH). The target protein was concentrated in the ultra-filtration tube with MW cutoff 30 kDa and further purified by size-exclusion chromatography on a Superdex-200 column (GE Healthcare) in buffer A. Fractions containing MiD49-GST (126-454) were pooled, concentrated, flash-frozen as single-use aliquots in liquid nitrogen and stored at −80° C.
A total of 100 nl of compounds were plated in a 384-well AlphaPlate (PerkinElmer, Waltham, MA) at concentrations 100 uM to […] in DMSO (dilution by 3.165 for 11 concentration levels). Recombinant His-DRP1 (200 nM), MiD49-GST (20 nM), and GMP-PNP (100 uM) were mixed in assay buffer (PBS with 1.5% BSA, 1 mM DTT). Five microliters of the protein mixture were added to the plate and incubate at room temperature for 30 min. Glutathione donor beads and nickel chelate acceptor beads were diluted and mixed in assay buffer to obtain 40 μg/ml of each bead. Five microliters of the mixed beads were added to each well on the microplate leading to a final bead concentration of 20 µg/ml per well. The sealed plate was incubated at room temperature for 60 min and protected from light. The AlphaLISA signal was detected with an EnVision Multilabel Reader (excitation at 680 and emission 615 nm). GraphPad Prism was used to calculate the IC50 by applying sigmoidal dose-response fit (variable slope).

T1 sequence (O00429 1-699 isoform O00429-4): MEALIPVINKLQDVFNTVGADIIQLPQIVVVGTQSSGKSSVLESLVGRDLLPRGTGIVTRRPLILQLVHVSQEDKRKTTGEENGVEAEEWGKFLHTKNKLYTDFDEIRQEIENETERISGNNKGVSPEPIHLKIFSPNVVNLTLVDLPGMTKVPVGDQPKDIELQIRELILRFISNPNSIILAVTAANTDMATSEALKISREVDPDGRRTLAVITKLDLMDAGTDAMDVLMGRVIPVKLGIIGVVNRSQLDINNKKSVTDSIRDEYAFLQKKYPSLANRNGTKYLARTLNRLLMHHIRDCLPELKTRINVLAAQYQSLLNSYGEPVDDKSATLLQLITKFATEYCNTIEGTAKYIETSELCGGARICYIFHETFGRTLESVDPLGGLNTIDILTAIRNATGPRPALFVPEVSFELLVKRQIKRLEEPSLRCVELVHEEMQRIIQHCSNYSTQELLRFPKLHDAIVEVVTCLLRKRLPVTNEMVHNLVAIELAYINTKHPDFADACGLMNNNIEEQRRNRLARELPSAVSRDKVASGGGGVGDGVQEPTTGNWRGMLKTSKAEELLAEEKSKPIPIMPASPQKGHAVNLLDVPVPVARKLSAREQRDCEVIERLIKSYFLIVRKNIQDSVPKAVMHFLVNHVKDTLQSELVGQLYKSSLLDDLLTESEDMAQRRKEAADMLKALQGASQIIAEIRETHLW

Row | SMILES | IC50
1 | COCCOc1cc(-c2cncs2)nc2ccc(NC(=O)C3COC3)cc12 [Example 1, N-(4-(2-methoxyethoxy)-2-(thiazol-5-yl)quinolin-6-yl)oxetane-3-carboxamide] | < 500 nM
2 | CCOc1cc(-n2cnc(C)c2)nc2ccc(NC(=O)C3COC3)cc12 [Example 2, N-(4-ethoxy-2-(4-methyl-1H-imidazol-1-yl)quinolin-6-yl)oxetane-3-carboxamide] | < 500 nM
3 | CCOc1cc(-c2cncs2)nc2ccc(NC(=O)C3COC3)cc12 [Example 3, N-(4-ethoxy-2-(thiazol-5-yl)quinolin-6-yl)oxetane-3-carboxamide] | < 500 nM
4 | CCOc1cc(-c2cncs2)nc2ccc(NC(=O)C34CC(C3)C4)cc12 [Example 4, N-(4-ethoxy-2-(thiazol-5-yl)quinolin-6-yl)bicyclo[1.1.1]pentane-1-carboxamide] | 500 to 1000 nM
5 | COc1cc(-c2cncs2)nc2ccc(NC(=O)C3COC3)cc12 [Example 5, N-(4-methoxy-2-(thiazol-5-yl)quinolin-6-yl) oxetane-3-carboxamide] | 500 to 1000 nM
6 | CCOc1cc(-c2cnc(C)s2)nc2ccc(NC(=O)C3COC3)cc12 [Example 6, N-(4-ethoxy-2-(2-methylthiazol-5-yl)quinolin-6-yl) oxetane-3-carboxamide] | < 500 nM
7 | CCOc1cc(-c2cnc(OC)s2)nc2ccc(NC(=O)C3COC3)cc12 [Example 7, N-(4-ethoxy-2-(2-methoxythiazol-5-yl)quinolin-6-yl) oxetane-3-carboxamide] | < 500 nM
8 | CCOc1cc(-c2cnc(C3CC3)s2)nc2ccc(NC(=O)C3COC3)cc12 [Example 8, N-(2-(2-cyclopropylthiazol-5-yl)-4-ethoxyquinolin-6-yl) oxetane-3-carboxamide] | 500 to 1000 nM
9 | O=C(Nc1ccc2nc(-c3cncs3)cc(OCCO)c2c1)C1COC1 [Example 9, N-(4-(2-hydroxyethoxy)-2-(thiazol-5-yl)quinolin-6-yl) oxetane-3-carboxamide] | < 500 nM
10 | O=C(Nc1ccc2nc(-c3cncs3)cc(OCCO)c2c1)C(F)(F)F [Example 10, 2,2,2-trifluoro-N-(4-(2-hydroxyethoxy)-2-(thiazol-5-yl)quinolin-6-yl)acetamide] | 1000 to 10000 nM
11 | COCCOc1cc(-c2cnc(C)s2)nc2ccc(NC(=O)C3COC3)cc12 [Example 11, N-(4-(2-methoxyethoxy)-2-(2-methylthiazol-5-yl)quinolin-6-yl)oxetane-3-carboxamide] | 500 to 1000 nM
12 | CCOc1cc(-c2cnc(Cl)s2)nc2ccc(NC(=O)C3COC3)cc12 [Example 12, N-(2-(2-chlorothiazol-5-yl)-4-ethoxyquinolin-6-yl)oxetane-3-carboxamide] | 1000 to 10000 nM
13 | COCCOc1cc(-c2cncs2)nc2ccc(NC(=O)CO)cc12 [Example 13, 2-hydroxy-N-(4-(2-methoxyethoxy)-2-(thiazol-5-yl)quinolin-6-yl) acetamide] | 1000 to 10000 nM
14 | COCCOc1cc(-c2cncs2)nc2ccc(NC(=O)[C@H](C)O)cc12 [Example 14, (S)-2-hydroxy-N-(4-(2-methoxyethoxy)-2-(thiazol-5-yl)quinolin-6-yl)propanamide] | 1000 to 10000 nM
15 | COCCOc1cc(-c2cncs2)nc2ccc(NC(=O)[C@@H](C)O)cc12 [Example 15, (R)-2-hydroxy-N-(4-(2-methoxyethoxy)-2-(thiazol-5-yl)quinolin-6-yl)propanamide] | 1000 to 10000 nM
16 | COCCOc1cc(-c2cncs2)nc2ccc(NC(=O)[C@H]3C[C@@H](O)C3)cc12 [Example 16, cis-3-hydroxy-N-(4-(2-methoxyethoxy)-2-(thiazol-5-yl)quinolin-6-yl)cyclobutane-1-carboxamide] | < 500 nM

The next lines start with the values.

Row | IC50 | SMILES
17 | 500 to 1000 nM | COCCOc1cc(-c2cncs2)nc2ccc(NC(=O)[C@@H]3C[C@H]3C#N)cc12 (racemic) [Example 19, trans-2-cyano-N-(4-(2-methoxyethoxy)-2-(thiazol-5-yl)quinolin-6-yl)cyclopropane-1-carboxamide]
18 | < 500 nM | COCCOc1cc(-c2cncs2)nc2ccc(NC(=O)[C@H]3C[C@H](O)C3)cc12 [Example 17, trans-3-hydroxy-N-(4-(2-methoxyethoxy)-2-(thiazol-5-yl)quinolin-6-yl)cyclobutane-1-carboxamide]
19 | < 500 nM | COCCOc1cc(-c2cncs2)nc2ccc(NC(=O)C3CC3C)cc12 (centres unmarked) [Example 18, N-(4-(2-methoxyethoxy)-2-(thiazol-5-yl)quinolin-6-yl)-2-methylcyclopropane-1-carboxamide]
20 | 1000 to 10000 nM | COCCOc1cc(-c2cncs2)nc2ccc(NC(=O)C3CC3C(F)(F)F)cc12 (centres unmarked) [Example 20, N-(4-(2-methoxyethoxy)-2-(thiazol-5-yl)quinolin-6-yl)-2-(trifluoromethyl)cyclopropane-1-carboxamide]
21 | 1000 to 10000 nM | COCCOc1cc(-c2cncs2)nc2ccc(NC(=O)COC)cc12 [Example 21, 2-methoxy-N-(4-(2-methoxyethoxy)-2-(thiazol-5-yl)quinolin-6-yl)acetamide]
22 | < 500 nM | COCCOc1cc(-c2cncs2)nc2ccc(NC(=O)C(C)OC)cc12 (centres unmarked) [Example 22, 2-methoxy-N-(4-(2-methoxyethoxy)-2-(thiazol-5-yl)quinolin-6-yl)propanamide]
23 | < 500 nM | COCCOc1cc(-c2cncs2)nc2ccc(NC(=O)C3CCCOC3)cc12 (centres unmarked) [Example 23, N-(4-(2-methoxyethoxy)-2-(thiazol-5-yl)quinolin-6-yl)tetrahydro-2H-pyran-3-carboxamide]
24 | 500 to 1000 nM | COCCOc1cc(-c2cncs2)nc2ccc(NC(=O)CCOC)cc12 [Example 24, 3-methoxy-N-(4-(2-methoxyethoxy)-2-(thiazol-5-yl)quinolin-6-yl)propanamide]
25 | < 500 nM | CCCOC(C)C(=O)Nc1ccc2nc(-c3cncs3)cc(OCCOC)c2c1 (centres unmarked) [Example 25, N-(4-(2-methoxyethoxy)-2-(thiazol-5-yl)quinolin-6-yl)-2-propoxypropanamide]
26 | < 500 nM | CCOC(C)C(=O)Nc1ccc2nc(-c3cncs3)cc(OCCOC)c2c1 (centres unmarked) [Example 26, 2-ethoxy-N-(4-(2-methoxyethoxy)-2-(thiazol-5-yl)quinolin-6-yl)propanamide]
27 | 500 to 1000 nM | COCCOc1cc(-c2cncs2)nc2ccc(NC(=O)C(F)(F)CO)cc12 [Example 27, 2,2-difluoro-3-hydroxy-N-(4-(2-methoxyethoxy)-2-(thiazol-5-yl)quinolin-6-yl)propanamide]
28 | < 500 nM | COCCOc1cc(-c2cncs2)nc2ccc(NC(=O)C(C)C#N)cc12 (centres unmarked) [Example 28, 2-cyano-N-(4-(2-methoxyethoxy)-2-(thiazol-5-yl)quinolin-6-yl)propanamide]
29 | > 10000 nM | COCCOc1cc(-c2cncs2)nc2ccc(NC(=O)C3(OC)CC3)cc12 [Example 29, 1-methoxy-N-(4-(2-methoxyethoxy)-2-(thiazol-5-yl)quinolin-6-yl)cyclopropane-1-carboxamide]
30 | 1000 to 10000 nM | COCCOc1cc(-c2cncs2)nc2ccc(NC(=O)C3CC(F)(F)C3)cc12 [Example 30, 3,3-difluoro-N-(4-(2-methoxyethoxy)-2-(thiazol-5-yl)quinolin-6-yl)cyclobutane-1-carboxamide]
31 | 1000 to 10000 nM | COCCOc1cc(-c2cncs2)nc2ccc(NC(=O)C34CC(C3)C4)cc12 [Example 31, N-(4-(2-methoxyethoxy)-2-(thiazol-5-yl)quinolin-6-yl)bicyclo[1.1.1]pentane-1-carboxamide]
32 | 500 to 1000 nM | COCCOc1cc(-c2cncs2)nc2ccc(NC(=O)C(C)COC)cc12 (centres unmarked) [Example 32, 3-methoxy-N-(4-(2-methoxyethoxy)-2-(thiazol-5-yl)quinolin-6-yl)-2-methylpropanamide]

From patent US20260125372A1, “DYNAMIN-1-LIKE PROTEIN INHIBITORS AND USES THEREOF” (Astellas Engineered Small Molecules US, Incorporated, priority 2022, published 2026)
